Biological target: T1, 2'-phosphotransferase (Candida albicans (strain SC5314 / ATCC MYA-2876), UniProt Q5A7N4)
T1 sequence (Q5A7N4 whole entry): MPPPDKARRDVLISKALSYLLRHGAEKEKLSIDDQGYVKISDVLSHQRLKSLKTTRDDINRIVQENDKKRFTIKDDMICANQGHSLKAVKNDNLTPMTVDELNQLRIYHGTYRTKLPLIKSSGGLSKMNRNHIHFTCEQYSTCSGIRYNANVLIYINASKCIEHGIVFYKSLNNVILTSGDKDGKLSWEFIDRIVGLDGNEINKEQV
Assay: TPT1 tRNA phosphotransferase inhibitors, dose response, biochemical, fluorescence polarization (AID 2160)

- IC50: > 55.7 µM
Compound: Cc1ccc2nc(N=NCc3ccc([N+](=O)[O-])o3)nc(-c3ccccc3)c2c1

Source: BindingDB's records for doi:10.7270/Q2668BKB (The Scripps Research Institute Molecular Screening Center, 2009)
